From US6780992B2, “Heterocyclic compounds, process for their preparation and pharmaceutical compositions containing them and their use in the treatment of diabetes and related diseases” (Dr. Reddy's Laboratories Ltd., priority 1996, dated 2004)
Counter-ions that a name gives are not always drawn. Like-named read-outs stand apart in the source and are kept apart here.

Test system: C57BL/KsJ-db/db mice
Experiment: blood sugar and triglycerides lowering in db/db mice, oral gavage daily for 6 days
Type: in vivo
Details: for inhibition in vivo at 100 mg/kg/day / inhibition in vivo at 30 mg/kg/day / inhibition in vivo at 10 mg/kg/day: Mus musculus, 144 h, 6 days treated; for inhibition in vivo at 100 mg/kg/day: dose 100 mg/kg/day oral gavage; for inhibition in vivo at 30 mg/kg/day: dose 30 mg/kg/day oral gavage; for inhibition in vivo at 10 mg/kg/day: dose 10 mg/kg/day oral gavage
Source text: Mutation in colonies of laboratory animals and different sensitivities to dietary regimens have made the development of animal models with non-insulin dependent diabetes associated with obesity and insulin resistance possible. Genetic models such as db/db and ob/ob (See Diabetes, (1982) 31(1): 1-6) in mice and fa/fa and zucker rats have been developed by the various laboratories for understanding the pathophysiology of disease and testing the efficacy of new antidiabetic compounds (Diabetes, (1983) 32: 830-838; Annu. Rep. Sankyo Res. Lab. (1994) 46: 1-57). The homozygous animals, C57 BL/KsJ-db/db mice developed by Jackson Laboratory, US, are obese, hyperglycemic, hyperinsulinemic and insulin resistant (J. Clin. Invest., (1990) 85: 962-967), whereas heterozygous are lean and normoglycemic. In db/db model, mouse progressively develops insulinopenia with age, a feature commonly observed in late stages of human type II diabetes when blood sugar levels are insufficiently controlled. The state of pancreas and its course vary according to the models. Since this model resembles that of type II diabetes mellitus, the compounds of the present invention were tested for blood sugar and triglycerides lowering activities.
Male C57BL/KsJ-db/db mice of 8 to 14 weeks age, having body weight range of 35 to 60 grams, procured from the Jackson Laboraotory, USA, were used in the experiment. The mice were provided with standard feed (National Institute of Nutrition, Hyderabad, India) and acidified water, ad libitum. The animals having more than 300 mg/dl blood sugar were used for testing. The number of animals in each group was 4.
The random blood sugar and triglyceride levels were measured by collecting blood (100 μl) through orbital sinus, using heparinised capillary in tubes containing EDTA which was centrifuged to obtain plasma. The plasma glucose and triglycerides levels were measured spectrometrically, by glucose oxidase and glycerol-3-PO4 oxidase/peroxidase enzyme (Dr. Reddy's Lab. Diagnostic Division Kits, Hyderabad, India) methods respectively. On 6th day the blood samples were collected one hour after administration of test compounds/vehicle for assessing the biological activity.
Test compounds were suspended on 0.25% carboxymethyl cellulose and administered to test group at a dose of 10 mg to 100 mg/kg through oral gavage daily for 6 days. The control group received vehicle (dose 10 ml/kg).
The blood sugar and triglycerides lowering activities of the test compound was calculated according to the formula: [formula]

[1] = read-out: Maximum reduction in blood glucose level (%)
[2] = read-out: Triglyceride lowering (%)

Compound	inhibition in vivo at 100 mg/kg/day [1]	inhibition in vivo at 100 mg/kg/day [2]	inhibition in vivo at 30 mg/kg/day [1]	inhibition in vivo at 30 mg/kg/day [2]	other results
CCc1nc(C)cc(=O)n1CCOc1ccc(/C=C2\SC(=O)NC2=O)cc1 [Example 3, 5-[4-[2-[2-Ethyl-4-methyl-6-oxo-1,6-dihydro-1-pyrimidinyl]ethoxy]phenylmethylene]thiazolidine-2,4-dione]	67%	12%	–	–	–
CCc1c(C)nc(CC)n(CCOc2ccc(/C=C3\SC(=O)NC3=O)cc2)c1=O [Example 6, 5-[4-[2-[2,Diethyl-4-methyl-6-oxo-1,6-dihydro-1-pyrimidinyl]ethoxy]phenylmethylene]thiazolidine-2,4-dione]	41%	31%	–	–	–
CCc1nc(-c2ccccc2)cc(=O)n1CCOc1ccc(/C=C2\SC(=O)NC2=O)cc1 [Example 7, 5-[4-[2-[2-Ethyl-4phenyl-6-oxo-1,6-dihydro-1-pyrimidinyl]ethoxy]phenylmethylene]thiazolidine-2,4-dione]	66%	35%	–	–	–
Cc1nc2ccccc2c(=O)n1CCOc1ccc(/C=C2\SC(=O)NC2=O)cc1 [Example 9, 5-[4-[2-[2-Methyl-4-oxo-3,4-dihydro-3-quinazolinyl]ethoxy]phenylmethylene]thiazolidine-2,4-dione]	–	–	46%	35%	–
Cc1nc2ncccc2c(=O)n1CCOc1ccc(/C=C2\SC(=O)NC2=O)cc1 [Example 11, 5-[4-[2-[8-Aza-2-methyl-4-oxo-3,4-dihydro-3-quinazolinyl]ethoxy]phenylmethylene]thiazolidine-2,4-dione]	–	–	32%	42%	–
Cn1c(COc2ccc(/C=C3\SC(=O)NC3=O)cc2)nc2ccccc2c1=O [Example 12, 5-[4-[[3-Methyl-4-oxo-3,4-dihydro-2-quinazolinyl]methoxy]phenylmethylene]thiazolidine-2,4-dione]	71%	57%	–	–	–
CCn1c(COc2ccc(/C=C3\SC(=O)NC3=O)cc2)nc2ccccc2c1=O [Example 13, 5-[4-[[3-Ethyl-4-oxo-3,4-dihydro-2-quinazolinyl]methoxy]phenylmethylene]thiazolidine-2,4-dione]	52%	57%	–	–	–
CCCc1nc(C)cc(=O)n1CCOc1ccc(CC2SC(=O)NC2=O)cc1 (stereo not drawn) [Example 17, 5-[4-[2-[4-methyl-2-Propyl-6-oxo-1,6-dihydro-1-pyrimidinyl]ethoxy]phenylmethyl]thiazolidine-2,4-dione]	–	–	65%	45%	–
CCc1nc(C)cc(=O)n1CCOc1ccc(CC2SC(=O)NC2=O)cc1 (stereo not drawn) [Example 19, 5-[4-[2-[2-Ethyl-4-methyl-6-oxo-1,6-dihydro-1-pyrimidinyl]ethoxy]phenylmethyl]thiazolidine-2,4-dione]	–	–	73%	70%	–
CCc1nc(-c2ccccc2)cc(=O)n1CCOc1ccc(CC2SC(=O)NC2=O)cc1 (stereo not drawn) [Example 21, 5-[4-[2-[2-Ethyl-4phenyl-6-oxo-1,6-dihydro-1-pyrimidinyl]ethoxy]phenylmethyl]thiazolidine-2,4-dione]	–	–	64%	76%	–
Cn1c(COc2ccc(CC3SC(=O)NC3=O)cc2)nc2ccccc2c1=O (stereo not drawn) [Example 22, 5-[4-[[3-Methyl-4-oxo-3,4-dihydro-2-quinazolinyl]methoxy]phenylmethyl]thiazolidine-2,4-dione]	–	–	55%	41%	–
CCc1nc2ccccc2c(=O)n1CCOc1ccc(CC2SC(=O)NC2=O)cc1 (stereo not drawn) [Example 24, 5-[4-[2-[2-Ethyl-4-oxo-3,4-dihydro-3-quinazolinyl]ethoxy]phenylmethyl]thiazolidine-2,4-dione]	–	–	–	–	inhibition in vivo at 10 mg/kg/day [1]: 63%; inhibition in vivo at 10 mg/kg/day [2]: 17%
Cn1c(COc2ccc(CC3SC(=O)NC3=O)cc2)nc2ccccc2c1=O (stereo not drawn) [Example 28, 5-[4-[[3-Methyl-4oxo-3,4-dihydro-2-quinazolinyl]methoxy]phenylmethyl]thiazolidine-2,4-dione sodium salt]	–	–	–	–	inhibition in vivo at 10 mg/kg/day [1]: 63%; inhibition in vivo at 10 mg/kg/day [2]: 57%
Cc1c(C)c2c(c(C)c1O)CCC(C)(COc1ccc(CC3SC(=O)NC3=O)cc1)O2 (stereo not drawn) [Troglitazone, reference compound]	–	–	–	–	reduction in random blood sugar level (100 mg/kg daily dose, on 6th day): 28%
